# In patent US12378224B2 (Dong-A Socio Holdings Co., Ltd., priority 2016, dated 2025):
# Target: human MER (528-end) (Homo sapiens (Human), UniProt Q12866)
# Test: HTRF Kinase Activity Biochemical Assay (KinEASE-TK)
# Settings: 10 uM ATP
# Summary of the method: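 Activity read-out is the HTRF ratio (665 nm over 620 nm emission, ×10,000; excitation 340 nm) after 1 h detection with 0.375 nM Eu3+-cryptate anti-TK antibody plus 0.062 uM SA-XL665. Preceding kinase step: human MER (528-end), biotinylated TK substrate, 1 h, room temperature.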
# Sequence of human MER (528-end) (Q12866 528-999 limits assumed): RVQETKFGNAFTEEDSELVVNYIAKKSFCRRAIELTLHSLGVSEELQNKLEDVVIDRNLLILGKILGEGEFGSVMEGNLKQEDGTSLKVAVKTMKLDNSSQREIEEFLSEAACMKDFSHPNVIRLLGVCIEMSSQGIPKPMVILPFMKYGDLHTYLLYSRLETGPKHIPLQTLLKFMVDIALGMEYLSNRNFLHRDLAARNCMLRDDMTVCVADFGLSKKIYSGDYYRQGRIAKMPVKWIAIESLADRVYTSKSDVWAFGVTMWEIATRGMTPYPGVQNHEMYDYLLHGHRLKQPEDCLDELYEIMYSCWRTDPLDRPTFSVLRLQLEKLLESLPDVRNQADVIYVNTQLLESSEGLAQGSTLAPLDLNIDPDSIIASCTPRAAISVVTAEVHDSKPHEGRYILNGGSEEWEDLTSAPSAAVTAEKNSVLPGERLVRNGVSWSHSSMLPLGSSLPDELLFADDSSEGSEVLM
row,SMILES,IC50 [nM]
1,"CN1CCC(NCc2ccc(-c3cccc(OC(=O)N4CC[C@@H](NC(=O)c5cc(-c6cnn(C)c6)cnc5N)C4)c3)cc2)CC1 [Example 318, 4′-(((1-methylpiperidin-4-yl)amino)methyl)-[1,1′-biphenyl]-3-yl (R)-3-(2-amino-5-(1-methyl-1H-pyrazol-4-yl)nicotinamido)pyrrolidine-1-carboxylate]",100 to 1000
2,"Cn1cc(-c2cnc(N)c(C(=O)N[C@@H]3CCN(C(=O)Oc4cccc(-c5ccc(CN6CCCC(O)C6)cc5)c4)C3)c2)cn1 (stereo partly drawn) [Example 319, 4′-((3-hydroxypiperidin-1-yl)methyl)[1,1′-biphenyl]-3-yl (3R)-3-(2-amino-5-(1-methyl-1H-pyrazol-4-yl)nicotinamido)pyrrolidine-1-carboxylate]",100 to 1000
3,"Cn1cc(-c2cnc(N)c(C(=O)N[C@@H]3CCN(C(=O)Oc4cccc(-c5ccc(CN6CCCC(CO)C6)cc5)c4)C3)c2)cn1 (stereo partly drawn) [Example 320, 4′-((3-(hydroxymethyl)piperidin-1-yl)methyl)-[1,1′-biphenyl]-3-yl (3R)-3-(2-amino-5-(1-methyl-1H-pyrazol-4-yl)nicotinamido)pyrrolidine-1-carboxylate]",100 to 1000
4,"Cn1cc(-c2cnc(N)c(C(=O)N[C@@H]3CCN(C(=O)Oc4cccc(-c5ccc(CN6CCC(CO)CC6)cc5)c4)C3)c2)cn1 [Example 321, 4′-((4-(hydroxymethyl)piperidin-1-yl)methyl)-[1,1′-biphenyl]-3-yl (R)-3-(2-amino-5-(1-methyl-1H-pyrazol-4-yl)nicotinamido)pyrrolidine-1-carboxylate]",100 to 1000
5,"CN1CC[C@@H]2CN(Cc3ccc(-c4cccc(OC(=O)N5CC[C@@H](NC(=O)c6cc(-c7cnn(C)c7)cnc6N)C5)c4)cc3)C[C@@H]21 [Example 322, 4′-(((3aR,6aR)-1-methylhexahydropyrrolo[3,4-b]pyrrol-5(1H)-yl)methyl)-[1,1′-biphenyl]-3-yl (R)-3-(2-amino-5-(1-methyl-1H-pyrazol-4-yl)nicotinamido)pyrrolidine-1-carboxylate]",100 to 1000
6,"Cn1cc(-c2cnc(N)c(C(=O)N[C@@H]3CCN(C(=O)Oc4cccc(-c5ccc(CN6CCCNCC6)cc5)c4)C3)c2)cn1 [Example 323, 4′-((1,4-diazepan-1-yl)methyl)-[1,1′-biphenyl]-3-yl (R)-3-(2-amino-5-(1-methyl-1H-pyrazol-4-yl)nicotinamido)pyrrolidine-1-carboxylate]",100 to 1000
7,"Cn1cc(-c2cnc(N)c(C(=O)N[C@@H]3CCN(C(=O)Oc4cccc(-c5ccc(CN6CCC[C@@H]6CO)cc5)c4)C3)c2)cn1 [Example 324, 4′-(((R)-2-(hydroxymethyl)pyrrolidin-1-yl)methyl)-[1,1′-biphenyl]-3-yl (R)-3-(2-amino-5-(1-methyl-1H-pyrazol-4-yl)nicotinamido)pyrrolidine-1-carboxylate]",100 to 1000
8,"Cn1cc(-c2cnc(N)c(C(=O)N[C@@H]3CCN(C(=O)Oc4cccc(-c5ccc(CN6CCC[C@H]6C(N)=O)cc5)c4)C3)c2)cn1 [Example 325, 4′-(((S)-2-carbamoylpyrrolidin-1-yl)methyl)-[1,1′-biphenyl]-3-yl (R)-3-(2-amino-5-(1-methyl-1H-pyrazol-4-yl)nicotinamido)pyrrolidine-1-carboxylate]",> 1000
9,"C[C@H](CO)NCc1ccc(-c2cccc(OC(=O)N3CC[C@@H](NC(=O)c4cc(-c5cnn(C)c5)cnc4N)C3)c2)cc1 [Example 327, 4′-((((R)-1-hydroxypropan-2-yl)amino)methyl)-[1,1′-biphenyl]-3-yl (R)-3-(2-amino-5-(1-methyl-1H-pyrazol-4-yl)nicotinamido)pyrrolidine-1-carboxylate]",100 to 1000
10,"Cn1cc(-c2cnc(N)c(C(=O)N[C@@H]3CCN(C(=O)Oc4cccc(-c5ccc(CNCCCO)cc5)c4)C3)c2)cn1 [Example 328, 4′-(((3-hydroxypropyl)amino)methyl)-[1,1′-biphenyl]-3-yl (R)-3-(2-amino-5-(1-methyl-1H-pyrazol-4-yl)nicotinamido)pyrrolidine-1-carboxylate]",100 to 1000
11,"Cn1cc(-c2cnc(N)c(C(=O)N[C@@H]3CCN(C(=O)Oc4cccc(-c5ccc(CN6CCC(C(=O)O)C6)cc5)c4)C3)c2)cn1 (stereo partly drawn) [Example 329, 1-((3′-(((R)-3-(2-amino-5-(1-methyl-1H-pyrazol-4-yl)nicotinamido)pyrrolidine-1-carbonyl)oxy)-[1,1′-biphenyl]-4-yl)methyl)pyrrolidine-3-carboxylic acid]",> 1000
12,"Cn1cc(-c2cnc(N)c(C(=O)N[C@@H]3CCN(C(=O)Oc4cccc(-c5cccc(CN6CC[C@H](N)C6)c5)c4)C3)c2)cn1 [Example 337, 3′-(((S)-3-aminopyrrolidin-1-yl)methyl)-[1,1′-biphenyl]-3-yl (R)-3-(2-amino-5-(1-methyl-1H-pyrazol-4-yl)nicotinamido)pyrrolidine-1-carboxylate]",> 1000
13,"Cn1cc(-c2cnc(N)c(C(=O)N[C@@H]3CCN(C(=O)c4ccc(-c5ccccc5CO)cc4)C3)c2)cn1 [Example 349, (R)-2-amino-N-(1-(2′-(hydroxymethyl)-[1,1′-biphenyl]-4-carbonyl)pyrrolidin-3-yl)-5-(1-methyl-1H-pyrazol-4-yl)nicotinamide]",100 to 1000
14,"CC(C)c1ccccc1-c1ccc(C(=O)N2CC[C@@H](NC(=O)c3cc(-c4cnn(C)c4)cnc3N)C2)cc1 [Example 350, (R)-2-amino-N-(1-(2′-isopropyl-[1,1′-biphenyl]-4-carbonyl)pyrrolidin-3-yl)-5-(1-methyl-1H-pyrazol-4-yl)nicotinamide]",100 to 1000
15,"Cn1cc(-c2cnc(N)c(C(=O)N[C@@H]3CCN(C(=O)c4ccc(-c5ccccc5Oc5ccccc5)cc4)C3)c2)cn1 [Example 351, (R)-2-amino-5-(1-methyl-1H-pyrazol-4-yl)-N-(1-(2^1-phenoxy-[1,1′-biphenyl]-4-carbonyl)pyrrolidin-3-yl)nicotinamide]",> 1000
16,"COc1ccccc1-c1ccc(C(=O)N2CC[C@@H](NC(=O)c3cc(-c4cnn(C)c4)cnc3N)C2)cc1 [Example 354, (R)-2-amino-N-(1-(2′-methoxy-[1,1′-biphenyl]-4-carbonyl)pyrrolidin-3-yl)-5-(1-methyl-1H-pyrazol-4-yl)nicotinamide]",10 to 100

# Results, then the compound that gave them:
row,IC50 [nM],SMILES
1,> 1000,"Cn1cc(-c2cnc(N)c(C(=O)N[C@@H]3CCN(C(=O)c4ccc(Br)cc4)C3)c2)cn1 [Example 342, (R)-2-amino-N-(1-(4-bromobenzoyl)pyrrolidin-3-yl)-5-(1-methyl-1H-pyrazol-4-yl)nicotinamide]"
2,10 to 100,"Cn1cc(-c2cnc(N)c(C(=O)N[C@@H]3CCN(C(=O)c4ccc(-c5ccccc5)cc4)C3)c2)cn1 [Example 343, (R)—N-(1-([1,1′-biphenyl]-4-carbonyl)pyrrolidin-3-yl)-2-amino-5-(1-methyl-1H-pyrazol-4-yl)nicotinamide]"
3,> 1000,"Cn1cc(-c2cnc(N)c(C(=O)N[C@H]3CCN(C(=O)c4cccc(-c5ccccc5)c4)C3)c2)cn1 [Example 345, (S)—N-(1-([1,1′-biphenyl]-3-carbonyl)pyrrolidin-3-yl)-2-amino-5-(1-methyl-1H-pyrazol-4-yl)nicotinamide]"
4,> 1000,"Cn1cc(-c2cnc(N)c(C(=O)N[C@@H]3CCN(C(=O)c4ccc(-c5ccccc5-c5ccccc5)cc4)C3)c2)cn1 [Example 352, (R)—N-(1-([1,1′:2′,1″-terphenyl]-4-carbonyl)pyrrolidin-3-yl)-2-amino-5-(1-methyl-1H-pyrazol-4-yl)nicotinamide]"
5,100 to 1000,"CCc1ccccc1-c1ccc(C(=O)N2CC[C@@H](NC(=O)c3cc(-c4cnn(C)c4)cnc3N)C2)cc1 [Example 353, (R)-2-amino-N-(1-(2′-ethyl-[1,1′-biphenyl]-4-carbonyl)pyrrolidin-3-yl)-5-(1-methyl-1H-pyrazol-4-yl)nicotinamide]"
6,> 1000,"Cn1cc(-c2cnc(N)c(C(=O)N[C@@H]3CCN(C(=O)c4ccc(-c5ccc(F)nc5)cc4)C3)c2)cn1 [Example 357, (R)-2-amino-N-(1-(4-(6-fluoropyridin-3-yl)benzoyl)pyrrolidin-3-yl)-5-(1-methyl-1H-pyrazol-4-yl)nicotinamide]"
7,100 to 1000,"Cn1cc(-c2cnc(N)c(C(=O)N[C@@H]3CCN(C(=O)c4ccc(-c5ccsc5)cc4)C3)c2)cn1 [Example 358, (R)-2-amino-5-(1-methyl-1H-pyrazol-4-yl)-N-(1-(4-(thiophen-3-yl)benzoyl)pyrrolidin-3-yl)nicotinamide]"
8,10 to 100,"Cn1cc(-c2cnc(N)c(C(=O)N[C@@H]3CCN(C(=O)c4ccc(-c5ccccc5Cl)cc4)C3)c2)cn1 [Example 359, (R)-2-amino-N-(1-(2′-chloro-[1,1′-biphenyl]-4-carbonyl)pyrrolidin-3-yl)-5-(1-methyl-1H-pyrazol-4-yl)nicotinamide]"
9,10 to 100,"Cn1cc(-c2cnc(N)c(C(=O)N[C@@H]3CCN(C(=O)c4ccc(-c5cccc(Cl)c5)cc4)C3)c2)cn1 [Example 360, (R)-2-amino-N-(1-(3′-chloro-[1,1′-biphenyl]-4-carbonyl)pyrrolidin-3-yl)-5-(1-methyl-1H-pyrazol-4-yl)nicotinamide]"
10,10 to 100,"Cn1cc(-c2cnc(N)c(C(=O)N[C@@H]3CCN(C(=O)c4ccc(-c5ccc(Cl)cc5Cl)cc4)C3)c2)cn1 [Example 361, (R)-2-amino-N-(1-(2′,4′-dichloro-[1,1′-biphenyl]-4-carbonyl)pyrrolidin-3-yl)-5-(1-methyl-1H-pyrazol-4-yl)nicotinamide]"
11,100 to 1000,"Cn1cc(-c2cnc(N)c(C(=O)N[C@@H]3CCN(C(=O)c4ccc(-c5ccc(Cl)c(Cl)c5)cc4)C3)c2)cn1 [Example 362, (R)-2-amino-N-(1-(3′,4′-dichloro-[1,1′-biphenyl]-4-carbonyl)pyrrolidin-3-yl)-5-(1-methyl-1H-pyrazol-4-yl)nicotinamide]"
12,100 to 1000,"Cn1cc(-c2cnc(N)c(C(=O)N[C@@H]3CCN(C(=O)c4ccc(-c5cc(Cl)cc(Cl)c5)cc4)C3)c2)cn1 [Example 363, (R)-2-amino-N-(1-(3′,5′-dichloro-[1,1′-biphenyl]-4-carbonyl)pyrrolidin-3-yl)-5-(1-methyl-1H-pyrazol-4-yl)nicotinamide]"
